Numbers after ± are expanded uncertainties.
Test: xn = mol fraction of the nth substance listed
Conditions: 101.3 kPa, Liquid

Cc1ccc(C)cc1 [1,4-dimethylbenzene] + CCCCCCCC
mass density (298.15 K, x1 = 0.1068): 712.9 ± 1.2 kg/m3 | viscosity (298.15 K, x1 = 0.1068): 0.5185 ± 0.015 mPa·s | mass density (298.15 K, x1 = 0.2121): 726.39 ± 1.1 kg/m3 | viscosity (298.15 K, x1 = 0.2121): 0.5172 ± 0.015 mPa·s | mass density (298.15 K, x1 = 0.3156): 740.39 ± 1.1 kg/m3 | viscosity (298.15 K, x1 = 0.3156): 0.5216 ± 0.015 mPa·s | mass density (298.15 K, x1 = 0.4178): 755.01 ± 1 kg/m3 | viscosity (298.15 K, x1 = 0.4178): 0.5273 ± 0.015 mPa·s | mass density (298.15 K, x1 = 0.5184): 770.21 ± 0.99 kg/m3 | viscosity (298.15 K, x1 = 0.5184): 0.5297 ± 0.015 mPa·s | mass density (298.15 K, x1 = 0.6174): 786.05 ± 0.93 kg/m3 | viscosity (298.15 K, x1 = 0.6174): 0.5393 ± 0.015 mPa·s | mass density (298.15 K, x1 = 0.7152): 802.61 ± 0.88 kg/m3 | viscosity (298.15 K, x1 = 0.7152): 0.5515 ± 0.015 mPa·s | mass density (298.15 K, x1 = 0.8113): 819.83 ± 0.82 kg/m3 | viscosity (298.15 K, x1 = 0.8113): 0.5678 ± 0.015 mPa·s | mass density (298.15 K, x1 = 0.9065): 837.91 ± 0.76 kg/m3 | viscosity (298.15 K, x1 = 0.9065): 0.5905 ± 0.016 mPa·s | mass density (298.15 K, x1 = 1): 856.7 ± 0.7 kg/m3 | viscosity (298.15 K, x1 = 1): 0.6162 ± 0.017 mPa·s | mass density (303.15 K, x1 = 0.1068): 708.71 ± 1.2 kg/m3 | viscosity (303.15 K, x1 = 0.1068): 0.4829 ± 0.014 mPa·s | mass density (303.15 K, x1 = 0.2121): 722.17 ± 1.1 kg/m3 | viscosity (303.15 K, x1 = 0.2121): 0.4825 ± 0.014 mPa·s | mass density (303.15 K, x1 = 0.3156): 736.15 ± 1.1 kg/m3 | viscosity (303.15 K, x1 = 0.3156): 0.4833 ± 0.014 mPa·s | mass density (303.15 K, x1 = 0.4178): 750.77 ± 1.1 kg/m3 | viscosity (303.15 K, x1 = 0.4178): 0.4919 ± 0.014 mPa·s | mass density (303.15 K, x1 = 0.5184): 765.93 ± 1 kg/m3 | viscosity (303.15 K, x1 = 0.5184): 0.493 ± 0.014 mPa·s | mass density (303.15 K, x1 = 0.6174): 781.76 ± 0.95 kg/m3 | viscosity (303.15 K, x1 = 0.6174): 0.502 ± 0.014 mPa·s | mass density (303.15 K, x1 = 0.7152): 798.3 ± 0.89 kg/m3 | viscosity (303.15 K, x1 = 0.7152): 0.5139 ± 0.014 mPa·s | mass density (303.15 K, x1 = 0.8113): 815.51 ± 0.84 kg/m3 | viscosity (303.15 K, x1 = 0.8113): 0.5299 ± 0.015 mPa·s | mass density (303.15 K, x1 = 0.9065): 833.52 ± 0.78 kg/m3 | viscosity (303.15 K, x1 = 0.9065): 0.5489 ± 0.015 mPa·s | mass density (303.15 K, x1 = 1): 852.35 ± 0.72 kg/m3 | viscosity (303.15 K, x1 = 1): 0.5715 ± 0.015 mPa·s | mass density (313.15 K, x1 = 0.1068): 700.44 ± 1.2 kg/m3 | viscosity (313.15 K, x1 = 0.1068): 0.4298 ± 0.013 mPa·s | mass density (313.15 K, x1 = 0.2121): 713.85 ± 1.2 kg/m3 | viscosity (313.15 K, x1 = 0.2121): 0.4298 ± 0.013 mPa·s | mass density (313.15 K, x1 = 0.3156): 727.78 ± 1.1 kg/m3 | viscosity (313.15 K, x1 = 0.3156): 0.4331 ± 0.013 mPa·s | mass density (313.15 K, x1 = 0.4178): 742.31 ± 1.1 kg/m3 | viscosity (313.15 K, x1 = 0.4178): 0.4373 ± 0.013 mPa·s | mass density (313.15 K, x1 = 0.5184): 757.45 ± 1 kg/m3 | viscosity (313.15 K, x1 = 0.5184): 0.4418 ± 0.013 mPa·s | mass density (313.15 K, x1 = 0.6174): 773.23 ± 0.97 kg/m3 | viscosity (313.15 K, x1 = 0.6174): 0.4483 ± 0.013 mPa·s | mass density (313.15 K, x1 = 0.7152): 789.72 ± 0.92 kg/m3 | viscosity (313.15 K, x1 = 0.7152): 0.4586 ± 0.013 mPa·s | mass density (313.15 K, x1 = 0.8113): 806.89 ± 0.86 kg/m3 | viscosity (313.15 K, x1 = 0.8113): 0.4722 ± 0.014 mPa·s | mass density (313.15 K, x1 = 0.9065): 824.89 ± 0.8 kg/m3 | viscosity (313.15 K, x1 = 0.9065): 0.4895 ± 0.014 mPa·s | mass density (313.15 K, x1 = 1): 843.64 ± 0.74 kg/m3 | viscosity (313.15 K, x1 = 1): 0.508 ± 0.014 mPa·s | mass density (323.15 K, x1 = 0.1068): 692.26 ± 1.2 kg/m3 | viscosity (323.15 K, x1 = 0.1068): 0.3877 ± 0.012 mPa·s | mass density (323.15 K, x1 = 0.2121): 705.6 ± 1.2 kg/m3 | viscosity (323.15 K, x1 = 0.2121): 0.3903 ± 0.012 mPa·s | mass density (323.15 K, x1 = 0.3156): 719.47 ± 1.1 kg/m3 | viscosity (323.15 K, x1 = 0.3156): 0.3901 ± 0.012 mPa·s | mass density (323.15 K, x1 = 0.4178): 733.93 ± 1.1 kg/m3 | viscosity (323.15 K, x1 = 0.4178): 0.3952 ± 0.012 mPa·s | mass density (323.15 K, x1 = 0.5184): 749.01 ± 1.1 kg/m3 | viscosity (323.15 K, x1 = 0.5184): 0.3997 ± 0.012 mPa·s | mass density (323.15 K, x1 = 0.6174): 764.73 ± 1 kg/m3 | viscosity (323.15 K, x1 = 0.6174): 0.4057 ± 0.012 mPa·s | mass density (323.15 K, x1 = 0.7152): 781.17 ± 0.94 kg/m3 | viscosity (323.15 K, x1 = 0.7152): 0.4143 ± 0.013 mPa·s | mass density (323.15 K, x1 = 0.8113): 798.31 ± 0.89 kg/m3 | viscosity (323.15 K, x1 = 0.8113): 0.4269 ± 0.013 mPa·s | mass density (323.15 K, x1 = 0.9065): 816.2 ± 0.83 kg/m3 | viscosity (323.15 K, x1 = 0.9065): 0.4409 ± 0.013 mPa·s | mass density (323.15 K, x1 = 1): 834.9 ± 0.77 kg/m3 | viscosity (323.15 K, x1 = 1): 0.4599 ± 0.013 mPa·s | mass density (333.15 K, x1 = 0.1068): 683.83 ± 1.3 kg/m3 | viscosity (333.15 K, x1 = 0.1068): 0.3528 ± 0.012 mPa·s | mass density (333.15 K, x1 = 0.2121): 697.15 ± 1.2 kg/m3 | viscosity (333.15 K, x1 = 0.2121): 0.3552 ± 0.012 mPa·s | mass density (333.15 K, x1 = 0.3156): 710.96 ± 1.2 kg/m3 | viscosity (333.15 K, x1 = 0.3156): 0.3571 ± 0.012 mPa·s | mass density (333.15 K, x1 = 0.4178): 725.38 ± 1.1 kg/m3 | viscosity (333.15 K, x1 = 0.4178): 0.3617 ± 0.012 mPa·s | mass density (333.15 K, x1 = 0.5184): 740.41 ± 1.1 kg/m3 | viscosity (333.15 K, x1 = 0.5184): 0.3671 ± 0.012 mPa·s | mass density (333.15 K, x1 = 0.6174): 756.08 ± 1 kg/m3 | viscosity (333.15 K, x1 = 0.6174): 0.3753 ± 0.012 mPa·s | mass density (333.15 K, x1 = 0.7152): 772.47 ± 0.97 kg/m3 | viscosity (333.15 K, x1 = 0.7152): 0.3858 ± 0.012 mPa·s | mass density (333.15 K, x1 = 0.8113): 789.52 ± 0.92 kg/m3 | viscosity (333.15 K, x1 = 0.8113): 0.3961 ± 0.012 mPa·s | mass density (333.15 K, x1 = 0.9065): 807.43 ± 0.86 kg/m3 | viscosity (333.15 K, x1 = 0.9065): 0.4138 ± 0.013 mPa·s | mass density (333.15 K, x1 = 1): 826.09 ± 0.8 kg/m3 | viscosity (333.15 K, x1 = 1): 0.4298 ± 0.013 mPa·s | mass density (343.15 K, x1 = 0.1068): 675.29 ± 1.3 kg/m3 | viscosity (343.15 K, x1 = 0.1068): 0.3167 ± 0.011 mPa·s | mass density (343.15 K, x1 = 0.2121): 688.57 ± 1.2 kg/m3 | viscosity (343.15 K, x1 = 0.2121): 0.3164 ± 0.011 mPa·s | mass density (343.15 K, x1 = 0.3156): 702.32 ± 1.2 kg/m3 | viscosity (343.15 K, x1 = 0.3156): 0.3185 ± 0.011 mPa·s | mass density (343.15 K, x1 = 0.4178): 716.69 ± 1.1 kg/m3 | viscosity (343.15 K, x1 = 0.4178): 0.3223 ± 0.011 mPa·s | mass density (343.15 K, x1 = 0.5184): 731.68 ± 1.1 kg/m3 | viscosity (343.15 K, x1 = 0.5184): 0.3271 ± 0.011 mPa·s | mass density (343.15 K, x1 = 0.6174): 747.3 ± 1.1 kg/m3 | viscosity (343.15 K, x1 = 0.6174): 0.3329 ± 0.011 mPa·s | mass density (343.15 K, x1 = 0.7152): 763.64 ± 1 kg/m3 | viscosity (343.15 K, x1 = 0.7152): 0.341 ± 0.011 mPa·s | mass density (343.15 K, x1 = 0.8113): 780.65 ± 0.94 kg/m3 | viscosity (343.15 K, x1 = 0.8113): 0.3481 ± 0.011 mPa·s | mass density (343.15 K, x1 = 0.9065): 798.53 ± 0.89 kg/m3 | viscosity (343.15 K, x1 = 0.9065): 0.3588 ± 0.012 mPa·s | mass density (343.15 K, x1 = 1): 817.17 ± 0.83 kg/m3 | viscosity (343.15 K, x1 = 1): 0.3783 ± 0.012 mPa·s | mass density (353.15 K, x1 = 0.1068): 666.51 ± 1.3 kg/m3 | viscosity (353.15 K, x1 = 0.1068): 0.2856 ± 0.01 mPa·s | mass density (353.15 K, x1 = 0.2121): 679.75 ± 1.3 kg/m3 | viscosity (353.15 K, x1 = 0.2121): 0.2877 ± 0.01 mPa·s | mass density (353.15 K, x1 = 0.3156): 693.48 ± 1.2 kg/m3 | viscosity (353.15 K, x1 = 0.3156): 0.2897 ± 0.01 mPa·s | mass density (353.15 K, x1 = 0.4178): 707.82 ± 1.2 kg/m3 | viscosity (353.15 K, x1 = 0.4178): 0.2939 ± 0.011 mPa·s | mass density (353.15 K, x1 = 0.5184): 722.78 ± 1.1 kg/m3 | viscosity (353.15 K, x1 = 0.5184): 0.2984 ± 0.011 mPa·s | mass density (353.15 K, x1 = 0.6174): 738.37 ± 1.1 kg/m3 | viscosity (353.15 K, x1 = 0.6174): 0.3016 ± 0.011 mPa·s | mass density (353.15 K, x1 = 0.7152): 754.7 ± 1 kg/m3 | viscosity (353.15 K, x1 = 0.7152): 0.3113 ± 0.011 mPa·s | mass density (353.15 K, x1 = 0.8113): 771.7 ± 0.97 kg/m3 | viscosity (353.15 K, x1 = 0.8113): 0.3174 ± 0.011 mPa·s | mass density (353.15 K, x1 = 0.9065): 789.57 ± 0.91 kg/m3 | viscosity (353.15 K, x1 = 0.9065): 0.3264 ± 0.011 mPa·s | mass density (353.15 K, x1 = 1): 808.22 ± 0.85 kg/m3 | viscosity (353.15 K, x1 = 1): 0.3382 ± 0.011 mPa·s
